Measured values taken from US7923448B2, “Purine receptor inhibition as a therapeutic strategy in spinal cord and brain” (priority 2003, dated 2011).
“Also recorded” adds a separate entry of the source.

Legend:
non-injured spinal cord = assay: Injection of ATP or ATP analogs into the non-injured spinal cord, TUNEL staining; type: in vivo, rat; conditions: 10 mM, 2 μl injected just lateral to the dorsal horn, 24 hrs later
Description: (§1) Adult female Spague-Dawley rats (220-250 g) were anesthetized with pentobarbital (50 mg/kg i.p.). When unresponsive, a double level laminectomy was performed at the T11 and T12 vertebrae. […] The tip of the rod was reduced to 1 mm to avoid direct traumatic injury of the dorsal venous complex. ATP and agonists (10 mM, 2 μl) were stereotaxically injected into T12 just lateral to the dorsal horn. All agents were purchased from Sigma.
The rats were anesthetized with ketamine (60 mg/kg) and xylazine (10 mg/kg). After 12 hours post-fixation, the spinal cord is cryoprotected in 30% sucrose and cut in serial 20 μm para-saggital sections. Myelin was visualized with Luxol fast blue (Basso et al., “A Sensitive and Reliable Locomotor Rating Scale for Open Field Testing in Rats,” J Neurotrauma 12:1-21 (1995) and Nedergaard et al., “Characterization of Cortical Depolarization Evoked in Focal Cerebral Ischemia,” J Cereb Blood Flow Metab 13:568-574 (1993), which are hereby incorporated by reference in their entirety)). Immunohistochemistry and TUNEL staining were performed as described in (Lin et al., “Gap-Junction-Mediated Propagation and Amplification of Cell Injury,” Nat Neurosci 1:494-500 (1998); Lin et al., “Connexin Mediates Gap Junction-Independent Resistance to Cellular Injury,” J Neurosci 23:430-441 (2003); and Takano et al., “Glutamate Release Promotes Growth of Malignant Glioma,” Nat Med 7:1010-1015 (2001), which are hereby incorporated by reference in their entirety)). Immunofluorescence was visualized using confocal microscopy (BioRad MRC1024) and images analyzed by Metamorph software (Universal Imaging Corp.).
It was then determined whether increased extracellular ATP in itself, in the non-injured spinal cord, was sufficient for induction of cell death. ATP or ATP analogs, all in a concentration of 10 mM (2 μl), were injected into the spinal cord just lateral to the dorsal horn. A large number of TUNEL-positive cells were present 24 hrs later in both gray and white matter (FIG. 2F). […] These observations indicate that raising extracellular ATP concentration is sufficient for induction of cell death in the non-injured spinal cord. In this regard, P2X7 receptors are expressed by most immune cells and their activation leads to multiple downstream events, including cell permeabilization and apoptosis (Chow et al., “Purines and Their Roles in Apoptosis,” Neuropharmacology 36:1149-1156 (1997) and Di Virgilio et al., “Cytolytic P2X Purinoceptors,” Cell Death Differ 5:191-199 (1998), which are hereby incorporated by reference in their entirety)).

P2X7 receptors [1] = molecular target: T1, P2X7 receptors (Rattus norvegicus, UniProt Q64663); assay: Current clamp recording of spiking in spinal cord neurons (slices); conditions: for effect on BzATP-induced increase in spike rate (FIG. 4 legend): BzATP 100 μM, OxATP 100 μM, NBQX 10 μM and CPP 5 μM applied combined; for spiking (action potential firing) of spinal cord neurons: 100 μM, current clamp
T1 sequence (Q64663 1-595): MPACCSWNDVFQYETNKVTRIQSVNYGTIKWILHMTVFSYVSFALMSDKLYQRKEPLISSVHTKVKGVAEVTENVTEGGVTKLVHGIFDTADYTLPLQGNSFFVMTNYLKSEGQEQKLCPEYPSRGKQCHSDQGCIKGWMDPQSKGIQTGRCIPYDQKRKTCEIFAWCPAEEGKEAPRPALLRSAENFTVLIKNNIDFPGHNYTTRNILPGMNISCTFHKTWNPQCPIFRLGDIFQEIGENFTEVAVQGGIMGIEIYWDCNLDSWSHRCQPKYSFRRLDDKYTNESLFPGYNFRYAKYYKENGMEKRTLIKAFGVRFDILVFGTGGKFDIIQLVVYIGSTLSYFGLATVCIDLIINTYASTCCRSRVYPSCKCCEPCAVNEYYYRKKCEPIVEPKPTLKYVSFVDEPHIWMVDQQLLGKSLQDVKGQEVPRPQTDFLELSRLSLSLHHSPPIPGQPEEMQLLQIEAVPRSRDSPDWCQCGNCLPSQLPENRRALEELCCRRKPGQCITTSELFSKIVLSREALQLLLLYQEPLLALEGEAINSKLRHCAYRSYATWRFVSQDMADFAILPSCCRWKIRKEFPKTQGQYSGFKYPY

P2X7 receptors [2] = molecular target: T1, P2X7 receptors; assay: Two-photon calcium imaging (fluo-4) of neurons in spinal cord slices; conditions: 100 μM; for cytosolic calcium concentration (fluo-4 emission) during bath application: 20 min agonist exposure, spinal cord slices
spinal cord injury [3] = assay: Weight-drop spinal cord injury, BBB open field locomotor rating scale; type: in vivo, rat; conditions: 1 mM, 2 μl local pretreatment; n=14
Description: as §1
The animals were evaluated daily for 2 weeks after injury and later on a biweekly basis.
It was next determined whether OxATP protected against cell death in the area of high ATP release following spinal cord injury. OxATP (1 mM, 2 μl) was injected locally into the peri-traumatic zone immediately prior to impact. […] The BBB open field locomotor rating scale was used to evaluate recovery of rats receiving OxATP versus vehicle treated control.

spinal cord injury [4] = assay: Weight-drop spinal cord injury, TUNEL-positive cells surrounding the lesion; type: in vivo, rat; conditions: 1 mM, 2 μl injected locally into the peri-traumatic zone immediately prior to impact; 24 hrs
Description: as §1
The rats were anesthetized with ketamine (60 mg/kg) and xylazine (10 mg/kg). After 12 hours post-fixation, the spinal cord is cryoprotected in 30% sucrose and cut in serial 20 μm para-saggital sections. Myelin was visualized with Luxol fast blue (Basso et al., “A Sensitive and Reliable Locomotor Rating Scale for Open Field Testing in Rats,” J Neurotrauma 12:1-21 (1995) and Nedergaard et al., “Characterization of Cortical Depolarization Evoked in Focal Cerebral Ischemia,” J Cereb Blood Flow Metab 13:568-574 (1993), which are hereby incorporated by reference in their entirety)). […] Immunofluorescence was visualized using confocal microscopy (BioRad MRC1024) and images analyzed by Metamorph software (Universal Imaging Corp.).
It was next determined whether OxATP protected against cell death in the area of high ATP release following spinal cord injury. […]

Nc1ncnc2c1ncn2[C@@H]1O[C@H](COP(=O)(O)CP(=O)(O)OP(=O)(O)O)[C@@H](O)[C@H]1O [αβATP]
apoptosis (TUNEL-positive cells) after injection into spinal cord (non-injured spinal cord): not associated with significant injury

CSc1nc(N)c2ncn([C@@H]3O[C@H](COP(=O)(O)OP(=O)(O)OP(=O)(O)O)[C@@H](O)[C@H]3O)c2n1 [2MeSATP]
apoptosis (TUNEL-positive cells) after injection into spinal cord (non-injured spinal cord): not associated with significant injury

O=C(O)C1CN(CCCP(=O)(O)O)CCN1 (stereo not shown) [CPP]
effect on BzATP-induced increase in spike rate (FIG. 4 legend) (P2X7 receptors [1]): no significant effect

BzATP
apoptosis (TUNEL-positive cells) after injection into spinal cord (non-injured spinal cord): induced apoptosis with a potency equivalent to ATP
spiking (action potential firing) of spinal cord neurons (P2X7 receptors [1]): increase spiking rate; also recorded: induced high frequency spiking
spiking rate versus BzATP dose (P2X7 receptors [1]; n=5-9): increases in a dose-dependent manner
Kd (P2X7 receptors [1]; read-out: kd (affinity, spiking response), spinal cord neurons): 23.8 µM
cytosolic calcium concentration (fluo-4 emission) during bath application (P2X7 receptors [2]): sustained increase in cytosolic calcium concentration
calcium elevation after washout (P2X7 receptors [2]; 20 min exposure followed by 20 min washout): failed to recover after washout

Nc1ncnc2c1ncn2[C@@H]1O[C@H](COP(=O)(O)OP(=O)(O)OP(=O)(O)O)[C@@H](O)[C@H]1O [ATP]
apoptosis (TUNEL-positive cells) after injection into spinal cord (non-injured spinal cord): induced a significant extent of apoptosis
spiking (action potential firing) of spinal cord neurons (P2X7 receptors [1]): increase spiking rate; also recorded: induced high frequency spiking
cytosolic calcium concentration (fluo-4 emission) during bath application (P2X7 receptors [2]): sustained increase in cytosolic calcium concentration

Nc1ncnc2c1ncn2[C@@H]1O[C@H](COP(=O)(O)OP(=O)(O)OP(O)(O)=S)[C@@H](O)[C@H]1O [ATPγS]
apoptosis (TUNEL-positive cells) after injection into spinal cord (non-injured spinal cord): highest extent of apoptosis

NBQX
effect on BzATP-induced increase in spike rate (FIG. 4 legend) (P2X7 receptors [1]): no significant effect

Nc1ncnc2c1ncn2[C@@H](C=O)O[C@@H](C=O)COP(=O)(O)OP(=O)(O)OP(=O)(O)O [OxATP, oxidized ATP]
effect on BzATP-induced increase in spike rate (FIG. 4 legend) (P2X7 receptors [1]): prevented BzATP-induced increase in spike rate
effect on agonist-increased spiking activity (P2X7 receptors [1]; pretreatment, OxATP 300 μM, ATP or BzATP 100 μM): attenuated
BBB score difference versus vehicle, first week of recovery (spinal cord injury [3]): 2-4 points
functional recovery (BBB) versus vehicle-treated controls (spinal cord injury [3]): significant improved recovery
number of TUNEL positive cells surrounding the lesion versus vehicle controls (spinal cord injury [4]): highly significant reduction
